Literature values as cited in US20250073182A1, “LOW DOSAGE GOSSYPOL CON[…] RODENTS” (priority 2023, published 2025).

Columns and labels:
[1] = tested on: male rats
[2] = tested on: ovarian follicles of female mice; settings: in vitro, all stages of development (Luz et al. 2018; Ding et al. 2021)
[3] = tested on: male mice
[4] = tested on: female rats; settings: female rats (Gadelha et al. 2014; Lin, et al., 1985)
[5] = gossypol in cottonseed meal at 15 mg/kg per day for 4 weeks
[6] = low doses, after 4 weeks (Nadakavukaren et al. 1979)

For Cc1cc2c(C(C)C)c(O)c(O)c(C=O)c2c(O)c1-c1c(C)cc2c(C(C)C)c(O)c(O)c(C=O)c2c1O (atropisomer, axis not shown) [gossypol], the “epididymal and accessory sex glands weights” value ([1]; daily 30 mg/kg for 6 weeks or 7.5 and 15 mg/kg for 12 weeks (Chang et al. 1982)) is listed as “reduced”, the fertility [1, 5] is listed as “reduced” and the toxicity [1, 5] is listed as “absent”. The “effects at high doses in rats” value ([1]; high doses (Romualdo et al. 2002; Gadelha et al. 2014)) was “reduced food intake, anorexia, and hepatic toxicity”, the offspring produced [1, 6] was “no offspring were produced” and the spermatozoa with defects [1, 6] was “over 50%”. The pregnancy rates ([1]; male rats given ≥10 mg/kg/d, bred to fertile females, as early as 6 weeks (Randel et al. 1992)) was “significantly lower”, the “fertility after withdrawal of treatment” value ([1]; rats (Chang et al. 1982)) was “recovery in fertility” and the “number of atretic follicles” value [2] was “increased”. The “number of viable follicles” value [2] was “significantly decreased”, the seminal vesicle weight ([3]; 20 or 40 mg/kg body weight, 3 weeks (Singh and Rath, 1990)) was “significant decrease” and the sperm counts ([3]; two mouse strains, 10 and 20 mg/kg BW orally for 4 weeks (Hunt and Mittwoch 1984)) was “reduced”. The estrous cycle [4] was “longer estrous cycle”.
